# Source: US20160345827A1, “TWO-PHOTON MICROSCOPY IMAGING RETINA CELL DAMAGE” (POLGENIX, INC., priority 2014, published 2016)
# Tests used:
# [1] = tested on: retinal explant tissue cultures; type: cell-based; details: 6 h at 37° C, WT retinas
# Experimental: FIGS. 6(A-B) illustrate images and a plot showing retinal degeneration is induced by atRAL in ex vivo retinal cultures. Retinas were removed from the eyecups of 4-wk-old C57BL/6J mice and cultured for 16 h at 37° C. Then retinas were incubated further with/without 30 μM of atRAL in the presence/absence of experimental drugs for 6 h at 37° C. Vehicle (DMSO), retinylamine (Ret-NH2) at 30 μM, or apocynin (Apo) at 300 μM was applied, together with atRAL. (A) Retinal morphology was examined after incubation with atRAL and with and without drugs. […] (B) TUNEL staining was performed with the ApoTag Peroxidase in Situ Apoptosis Detection Kit. Counter nuclear staining was accomplished with methyl green. […] (D) Retinas were removed from eyecups of 4-wk-old C57BL/6J mice and cultured with or without 30 μM of atRAL for 24 h at 37° C. After incubation, retinas were washed twice with PBS and then examined by TPM. Spectra from photoreceptor outer segments are shown (Left) along with representative magnified images (Right). Spectra from retinas cultured with atRAL featured a broad maximum absorption at 600 nm.
# (§1) Eyes were enucleated, washed with a penicillin-streptomycin solution (Sigma), and rinsed with Hank's balanced salt solution (HyClone). Prepared mouse eyecups were flattened by creating retinal flaps. Flattened retinas were transferred onto filter paper and the retina was gently peeled off from the RPE/choroid. All these procedures were performed under a surgical microscope. Each retina on filter paper was placed into a well of a 12-well plate filled with 0.5 mL of DMEM (HyClone) with 10% FBS and incubated for 16 h at 37° C. Retinas then were washed twice with 0.5 mL of fresh DMEM containing 10% FBS and finally incubated again with/without 30 μM of atRAL for 6 h at 37° C. A lactate dehydrogenase (LDH) assay was performed to determine cellular death rates with a LDH activity assay kit (BioVision). The percentage of cytotoxicity was calculated as [(a retina with atRAL—a retina without atRAL)/(lysis control—a retina without atRAL)]×100.
# The primary cause of acute retinal degeneration after bright light exposure in Abca4^−/−Rdh8^−/− mice is the delayed clearance of atRAL from photoreceptors. […] Thus, to examine whether retinal tissue lacking RPE cells can display degenerative changes similar to those observed in in vivo, we performed ex vivo culture experiments with retinal explants coincubated with atRAL. Neural retinas were dissected from eyes of 4-wk-old WT mice, and incubated with 30 μM of atRAL in the presence of control vehicle, 30 μM of retinylamine or 300 μM of apocynin for 6 h at 37° C. […] Cell death rates were calculated by measuring lactate dehydrogenase released into tissue culture supernatants from dying cells.
# [2] = tested on: Abca4^−/−Rdh8^−/− (Dko) retinal cultures; assay: ex vivo Dko retinal cultures incubated with atRAL (morphology, LDH); type: cell-based; details: Ret-NH2 30 μM or Apo 300 μM together with 30 μM atRAL, 6 h at 37° C, Dko retinas
# Experimental: FIGS. 11(A-B) illustrate images showing retinal degeneration is induced by atRAL in ex vivo Dko retinal cultures. Retinas were removed from the eyecups of 4-wk-old Abca4^−/−Rdh8^−/− (Dko) mice and cultured for 16 h at 37° C. Retinas were then incubated further with/without 30 μM of atRAL in the presence/absence of experimental drugs for 6 h at 37° C. Vehicle (DMSO), retinylamine (Ret-NH2) at 30 μM, or apocynin (Apo) at 300 μM was applied together with atRAL. (A) Retinal morphology was examined after incubation with atRAL. […] Bars indicate SD (n=3). *P<0.05.
# as §1
# [3] = tested on: RPE of wild type (WT) mice; assay: two-photon imaging of retinosomes in WT mouse RPE; type: in vivo; details: WT mice pre-treated with Ret-NH2, white light 5,000 lux before imaging, laser power reduced by 17%
# Experimental: To enhance the visibility of retinosomes, WT mice without any drug treatment or treated with Ret-NH2 were exposed to 5,000 lux of white light for 5-30 min, 1 to 3 h before imaging.
# To assess the capabilities of our system to characterize the RPE and retina we imaged ex vivo eyes of mice with different genetic backgrounds. The brightest RPE images were obtained in Rpe65^−/− mice in response to 730 nm excitation (FIG. 17a). The brightly fluorescent granules correspond to enlarged retinosomes, which are a characteristic feature of the RPE only in Rpe65^−/− mice due to blockade of 11cisretinol synthesis. […] We also imaged and counted the neuronal nuclei in the ganglion cell layer at 0.6 mm eccentricity and found 2,500 nuclei per mm2 (FIG. 17d), which is smaller than previously reported about 7,000 per mm2 of combined ganglion and displaced amacrine cells in stained retina. This difference arises from: a) nuclei are free of fluorophores, and are only visible as dark structures against brighter cell bodies, which can lead to obstruction of the nuclei by axon bundles; b) not all the cell nuclei were at the same imaging depth; and c) the estimates of the area could be off by 40% because they were determined by comparing measurements of optic disk in en face TPM images to histological sections. […]
compound,measurement,setting,value
CC1=C(/C=C/C(C)=C/C=C/C(C)=C/CN)C(C)(C)CCC1 [retinylamine],protection of retinal morphology against atRAL-induced damage,[1]; Ret-NH2 30 μM or apocynin 300 μM together with 30 μM atRAL,protected the ONL and INL
same,prevention of atRAL-induced photoreceptor apoptosis (TUNEL staining),"[1]; retinylamine 30 μM or apocynin 300 μM together with 30 μM atRAL, listed as Ret-NH2",protected the ONL and INL
same,effect on atRAL-induced cell death rate (LDH assay),[2],reduced
same,visibility of retinosomes in RPE,[3],more clearly visible
